According to the NIST ThermoML archive (doi:10.1021/je060271a):
± gives the expanded uncertainty stated by the source.

Conditions: 283.15 K, Liquid, Vibrating tube method

## CCCCCC(=O)OCC(COC(=O)CCCCC)(COC(=O)CCCCC)COC(=O)CCCCC [pentaerythritol tetrahexanoate]
7124.1 kPa
  mass density: 1008.3 ± 1.2 kg/m3
7135 kPa
  mass density: 1008.3 ± 1.2 kg/m3
7146.2 kPa
  mass density: 1008.3 ± 1.2 kg/m3
7159.7 kPa
  mass density: 1008.3 ± 1.2 kg/m3
7170.9 kPa
  mass density: 1008.3 ± 1.2 kg/m3
7182 kPa
  mass density: 1008.3 ± 1.2 kg/m3
7193.4 kPa
  mass density: 1008.3 ± 1.2 kg/m3
7206.5 kPa
  mass density: 1008.3 ± 1.2 kg/m3
7217.2 kPa
  mass density: 1008.4 ± 1.2 kg/m3
7228.4 kPa
  mass density: 1008.3 ± 1.2 kg/m3
7241.6 kPa
  mass density: 1008.4 ± 1.2 kg/m3
7252.8 kPa
  mass density: 1008.4 ± 1.2 kg/m3
7264.2 kPa
  mass density: 1008.4 ± 1.2 kg/m3
7277.8 kPa
  mass density: 1008.3 ± 1.2 kg/m3
7289 kPa
  mass density: 1008.4 ± 1.2 kg/m3
7300.4 kPa
  mass density: 1008.3 ± 1.2 kg/m3
7311.8 kPa
  mass density: 1008.3 ± 1.2 kg/m3
7323.4 kPa
  mass density: 1008.3 ± 1.2 kg/m3
7336.9 kPa
  mass density: 1008.4 ± 1.2 kg/m3
7348.4 kPa
  mass density: 1008.4 ± 1.2 kg/m3
7360.2 kPa
  mass density: 1008.3 ± 1.2 kg/m3
7373.8 kPa
  mass density: 1008.5 ± 1.2 kg/m3
7385.4 kPa
  mass density: 1008.3 ± 1.2 kg/m3
7396.9 kPa
  mass density: 1008.4 ± 1.2 kg/m3
7408.7 kPa
  mass density: 1008.5 ± 1.2 kg/m3
7422.7 kPa
  mass density: 1008.5 ± 1.2 kg/m3
7434.6 kPa
  mass density: 1008.5 ± 1.2 kg/m3
7446.5 kPa
  mass density: 1008.5 ± 1.2 kg/m3
7458.6 kPa
  mass density: 1008.5 ± 1.2 kg/m3
7472.7 kPa
  mass density: 1008.5 ± 1.2 kg/m3
7484.8 kPa
  mass density: 1008.6 ± 1.2 kg/m3
7496.7 kPa
  mass density: 1008.4 ± 1.2 kg/m3
7508.6 kPa
  mass density: 1008.6 ± 1.2 kg/m3
7523.2 kPa
  mass density: 1008.5 ± 1.2 kg/m3
7534.9 kPa
  mass density: 1008.5 ± 1.2 kg/m3
7547.3 kPa
  mass density: 1008.6 ± 1.2 kg/m3
7561.6 kPa
  mass density: 1008.5 ± 1.2 kg/m3
7573.6 kPa
  mass density: 1008.5 ± 1.2 kg/m3
7586 kPa
  mass density: 1008.5 ± 1.2 kg/m3
7598.2 kPa
  mass density: 1008.6 ± 1.2 kg/m3
7613.2 kPa
  mass density: 1008.4 ± 1.2 kg/m3
7625.9 kPa
  mass density: 1008.6 ± 1.2 kg/m3
7637.9 kPa
  mass density: 1008.6 ± 1.2 kg/m3
7650.7 kPa
  mass density: 1008.5 ± 1.2 kg/m3
7665 kPa
  mass density: 1008.6 ± 1.2 kg/m3
7678 kPa
  mass density: 1008.5 ± 1.2 kg/m3
7690.4 kPa
  mass density: 1008.6 ± 1.2 kg/m3
7705.3 kPa
  mass density: 1008.7 ± 1.2 kg/m3
7717.7 kPa
  mass density: 1008.6 ± 1.2 kg/m3
7730.5 kPa
  mass density: 1008.7 ± 1.2 kg/m3
7742.7 kPa
  mass density: 1008.6 ± 1.2 kg/m3
7758.4 kPa
  mass density: 1008.7 ± 1.2 kg/m3
7771.4 kPa
  mass density: 1008.7 ± 1.2 kg/m3
7784.3 kPa
  mass density: 1008.7 ± 1.2 kg/m3
7798.4 kPa
  mass density: 1008.5 ± 1.2 kg/m3
7811.2 kPa
  mass density: 1008.7 ± 1.2 kg/m3
7826.7 kPa
  mass density: 1008.7 ± 1.2 kg/m3
7839.6 kPa
  mass density: 1008.8 ± 1.2 kg/m3
7852.8 kPa
  mass density: 1008.8 ± 1.2 kg/m3
7866 kPa
  mass density: 1008.8 ± 1.2 kg/m3
7881.9 kPa
  mass density: 1008.7 ± 1.2 kg/m3
7895 kPa
  mass density: 1008.7 ± 1.2 kg/m3
7908.3 kPa
  mass density: 1008.7 ± 1.2 kg/m3
7924.2 kPa
  mass density: 1008.7 ± 1.2 kg/m3
7937.3 kPa
  mass density: 1008.7 ± 1.2 kg/m3
7950.8 kPa
  mass density: 1008.6 ± 1.2 kg/m3
7967.7 kPa
  mass density: 1008.7 ± 1.2 kg/m3
7978.6 kPa
  mass density: 1008.7 ± 1.2 kg/m3
7994.5 kPa
  mass density: 1008.8 ± 1.2 kg/m3
8008.3 kPa
  mass density: 1008.8 ± 1.2 kg/m3
8022.4 kPa
  mass density: 1008.7 ± 1.2 kg/m3
8036.2 kPa
  mass density: 1008.9 ± 1.2 kg/m3
8052.3 kPa
  mass density: 1008.8 ± 1.2 kg/m3
8065.9 kPa
  mass density: 1008.8 ± 1.2 kg/m3
8080.1 kPa
  mass density: 1008.9 ± 1.2 kg/m3
8094.4 kPa
  mass density: 1008.8 ± 1.2 kg/m3
8110.8 kPa
  mass density: 1008.9 ± 1.2 kg/m3
8125.1 kPa
  mass density: 1008.8 ± 1.2 kg/m3
8139.2 kPa
  mass density: 1008.8 ± 1.2 kg/m3
8153.4 kPa
  mass density: 1008.9 ± 1.2 kg/m3
8167.7 kPa
  mass density: 1008.8 ± 1.2 kg/m3
8184.9 kPa
  mass density: 1008.9 ± 1.2 kg/m3
8199.1 kPa
  mass density: 1008.8 ± 1.2 kg/m3
8213.4 kPa
  mass density: 1008.9 ± 1.2 kg/m3
8230.8 kPa
  mass density: 1008.9 ± 1.2 kg/m3
8245.5 kPa
  mass density: 1008.9 ± 1.2 kg/m3
8259.8 kPa
  mass density: 1008.8 ± 1.2 kg/m3
8274.5 kPa
  mass density: 1009 ± 1.2 kg/m3
8291.9 kPa
  mass density: 1008.9 ± 1.2 kg/m3
8306.6 kPa
  mass density: 1009 ± 1.2 kg/m3
8320.7 kPa
  mass density: 1009 ± 1.2 kg/m3
8335.5 kPa
  mass density: 1009.1 ± 1.2 kg/m3
8385.6 kPa
  mass density: 1009 ± 1.2 kg/m3
8400.7 kPa
  mass density: 1009 ± 1.2 kg/m3
8415.4 kPa
  mass density: 1009.1 ± 1.2 kg/m3
8430.1 kPa
  mass density: 1009 ± 1.2 kg/m3
8447.5 kPa
  mass density: 1009 ± 1.2 kg/m3
8463 kPa
  mass density: 1009 ± 1.2 kg/m3
8478 kPa
  mass density: 1009.1 ± 1.2 kg/m3
8496.3 kPa
  mass density: 1009.1 ± 1.2 kg/m3
8511.3 kPa
  mass density: 1009 ± 1.2 kg/m3
8529.1 kPa
  mass density: 1009.1 ± 1.2 kg/m3
8544.6 kPa
  mass density: 1009.1 ± 1.2 kg/m3
8560.6 kPa
  mass density: 1009.1 ± 1.2 kg/m3
8576.2 kPa
  mass density: 1009.1 ± 1.2 kg/m3
8594.8 kPa
  mass density: 1009.1 ± 1.2 kg/m3
8609.8 kPa
  mass density: 1009.2 ± 1.2 kg/m3
8625.5 kPa
  mass density: 1009.1 ± 1.2 kg/m3
8644.3 kPa
  mass density: 1009.3 ± 1.2 kg/m3
8659.6 kPa
  mass density: 1009.2 ± 1.2 kg/m3
8678.4 kPa
  mass density: 1009.2 ± 1.2 kg/m3
8694.4 kPa
  mass density: 1009.1 ± 1.2 kg/m3
8710.5 kPa
  mass density: 1009.1 ± 1.2 kg/m3
8729.5 kPa
  mass density: 1009.2 ± 1.2 kg/m3
8745.1 kPa
  mass density: 1009.1 ± 1.2 kg/m3
8761.5 kPa
  mass density: 1009.1 ± 1.2 kg/m3
8778.1 kPa
  mass density: 1009.3 ± 1.2 kg/m3
8797.7 kPa
  mass density: 1009.2 ± 1.2 kg/m3
8813.6 kPa
  mass density: 1009.3 ± 1.2 kg/m3
8833.4 kPa
  mass density: 1009.1 ± 1.2 kg/m3
8849.8 kPa
  mass density: 1009.3 ± 1.2 kg/m3
8865.8 kPa
  mass density: 1009.3 ± 1.2 kg/m3
8882.4 kPa
  mass density: 1009.2 ± 1.2 kg/m3
8902.4 kPa
  mass density: 1009.2 ± 1.2 kg/m3
8919.1 kPa
  mass density: 1009.3 ± 1.2 kg/m3
8935.3 kPa
  mass density: 1009.3 ± 1.2 kg/m3
8955.5 kPa
  mass density: 1009.4 ± 1.2 kg/m3
8972.2 kPa
  mass density: 1009.2 ± 1.2 kg/m3
8992.6 kPa
  mass density: 1009.4 ± 1.2 kg/m3
9009.6 kPa
  mass density: 1009.3 ± 1.2 kg/m3
9026.7 kPa
  mass density: 1009.4 ± 1.2 kg/m3
9043.4 kPa
  mass density: 1009.5 ± 1.2 kg/m3
9063.8 kPa
  mass density: 1009.4 ± 1.2 kg/m3
9081 kPa
  mass density: 1009.3 ± 1.2 kg/m3
9098.4 kPa
  mass density: 1009.5 ± 1.2 kg/m3
9118.9 kPa
  mass density: 1009.4 ± 1.2 kg/m3
9136.1 kPa
  mass density: 1009.4 ± 1.2 kg/m3
9156.6 kPa
  mass density: 1009.4 ± 1.2 kg/m3
9173.7 kPa
  mass density: 1009.4 ± 1.2 kg/m3
9191.1 kPa
  mass density: 1009.5 ± 1.2 kg/m3
9212.2 kPa
  mass density: 1009.5 ± 1.2 kg/m3
9230.4 kPa
  mass density: 1009.5 ± 1.2 kg/m3
9249.2 kPa
  mass density: 1009.5 ± 1.2 kg/m3
9266.9 kPa
  mass density: 1009.5 ± 1.2 kg/m3
